Results on one molecule are retold here after US10232026B2, “Vaccine for mycoplasma infection” (NATIONAL INSTITUTE OF INFECTIOUS DISEASES, priority 2009, dated 2019).

The experiment relates to human peripheral-blood mononuclear cells. The experiment in a line: Interferon γ production by peripheral-blood mononuclear cells with interleukin 2 (ELISA). In kind it is cell-based. The conditions noted are these: lipid antigen added with interleukin 2, supernatant ELISA. The protocol: It was found out that the production amount of interferon γ increased by 2 folds or more when mycoplasma-mimic particles (GGPL-I, GGPL-III) were added as compared with administration of interleukin 2 alone using human peripheral-blood mononuclear cells. The mononuclear cells were separated from the peripheral blood of a healthy individual, and a sample in which interleukin 2 and the lipid antigen were added to the mononuclear cells, and a sample of the mononuclear cells without adding the lipid antigen were cultured, and supernatants thereof were recovered, and the amounts of interferon γ in the supernatants were measured with an enzyme antibody immune method (ELISA method).
Mononuclear cells were separated from the peripheral blood of a healthy individual. A sample in which interleukin 2 and mycoplasma-mimic particles (GGPL-I, or GGPL-III) were added to the mononuclear cells, and a sample of the mononuclear cells with no addition of the mycoplasma-mimic particles were cultured, and supernatants thereof were recovered, and the amounts of interferon γ in the supernatant were measured with an enzyme antibody immune method (ELISA method).
Mononuclear cells were separated from the peripheral blood of a healthy individual. […]
For orientation: ELISA stands for enzyme-linked immunosorbent assay.

Take `CCCCCCCCCCCCCCCC(=O)OC[C@H](CO[C@H]1O[C@H](COP(=O)(O)OCC(N)COP(=O)(O)OCC[N+](C)(C)C)[C@@H](O)[C@H](O)[C@H]1O)OC(=O)CCCCCCCCCCCCCCC` (stereo partly shown) [GGPL-III]: the “production amount of interferon γ in comparison with no addition of the lipid antigen” value is given as “remarkably increased”.
